These results are taken from patent US8642788B2, “Activators of executioner procaspases 3, 6 and 7” (The Regents of the University of California, priority 2008, dated 2014).

Some results are limits rather than exact numbers.

What all share (type): biochemical
For one experiment, the target named is T1, procaspase-3 (Homo sapiens, UniProt P42574).
T1 construct: His6 (C); made in house; host or cells: E. coli BL21(DE3)RP, pET-23b
T1 sequence (P42574 1-277): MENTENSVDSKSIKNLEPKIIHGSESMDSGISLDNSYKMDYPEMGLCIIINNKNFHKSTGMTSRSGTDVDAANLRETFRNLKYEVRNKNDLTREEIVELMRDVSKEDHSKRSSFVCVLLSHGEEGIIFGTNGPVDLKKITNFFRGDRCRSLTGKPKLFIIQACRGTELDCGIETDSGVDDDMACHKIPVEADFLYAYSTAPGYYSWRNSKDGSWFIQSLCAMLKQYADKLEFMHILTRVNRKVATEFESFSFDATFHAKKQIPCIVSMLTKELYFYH
The experiment can be described thus: Executioner procaspase-3 activation assay (Ac-DEVD-AFC fluorogenic substrate). Conditions: incubation with compound for 5 h at 37° C.; 100 nM procaspase; read-out: Procaspase Activation 3. An outline of the steps: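 Procaspase-3 at 100 nM was incubated with activating compounds (100 nM to 100 uM) in 50 mM HEPES pH 7.4, 50 mM KCl, 1 mM DTT and 0.01% Triton-X100, the detergent limiting aggregation artefacts. Protein, substrate and inhibitor were kept as frozen aliquots and thawed just before use.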

For a further experiment, the target named is T2, procaspase-6 (Homo sapiens, UniProt P55212).
T2 sequence (P55212 1-293): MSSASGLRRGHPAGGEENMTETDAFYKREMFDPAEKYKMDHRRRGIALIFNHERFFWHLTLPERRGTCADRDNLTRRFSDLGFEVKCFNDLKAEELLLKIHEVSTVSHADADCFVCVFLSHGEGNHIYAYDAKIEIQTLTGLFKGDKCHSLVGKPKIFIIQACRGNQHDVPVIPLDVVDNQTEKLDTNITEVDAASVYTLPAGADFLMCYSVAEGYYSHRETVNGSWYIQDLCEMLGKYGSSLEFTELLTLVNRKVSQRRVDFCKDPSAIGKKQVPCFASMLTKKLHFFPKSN
Description: Executioner procaspase-6 activation assay (Ac-VEID-AFC fluorogenic substrate). As to conditions: incubation with compound for 5 h at 37° C.; 100 nM procaspase. The essentials:
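Procaspase at 100 nM incubated with compound (100 nM–100 μM) in 50 mM HEPES pH 7.4, KCl, DTT, 0.01% Triton X-100, 3% DMSO, 37 °C for 5 h; then 25 μM Ac-DEVD-AFC (procaspase-7) or Ac-VEID-AFC (procaspase-6), kinetic fluorescence 30 min (ex 365/em 495); EC50 reported.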

The target in another experiment is T3, procaspase-7 (Homo sapiens, UniProt P55210).
T3 construct: His6 (C); made in house; host or cells: E. coli BL21(DE3)RP, pET-21b
T3 sequence (P55210 1-303): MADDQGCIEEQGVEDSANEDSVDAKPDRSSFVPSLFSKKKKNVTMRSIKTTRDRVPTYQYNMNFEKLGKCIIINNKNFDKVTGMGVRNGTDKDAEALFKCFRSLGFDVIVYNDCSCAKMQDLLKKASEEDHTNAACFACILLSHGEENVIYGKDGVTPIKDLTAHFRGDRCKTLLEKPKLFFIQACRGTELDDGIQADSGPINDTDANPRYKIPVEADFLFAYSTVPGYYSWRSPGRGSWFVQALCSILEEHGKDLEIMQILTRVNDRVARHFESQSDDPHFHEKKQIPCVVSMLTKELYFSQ
The experiment can be described thus: Executioner procaspase-7 activation assay (Ac-DEVD-AFC fluorogenic substrate). As to conditions: incubation with compound for 5 h at 37° C.; 100 nM procaspase. On the procedure:
The executioner procaspase-3, -6 and -7 activation assay protocol involves incubating the target protein at the physiologically-relevant concentration of 100 nM with activating compounds (ranging from 100 nM to 100 uM) in a total volume of 50 μL consisting of a reaction buffer of 50 mM HEPES, pH 7.4, 50 mM KCl, 1 mM DTT and 0.01% Triton-X100 (to reduce false positive hits due to compound aggregation). The procaspase/small molecule incubations are then agitated at 37° C. and assayed at various time points by addition of the fluorogenic peptide substrate 7-Amino-4-trifluoromethylcoumarin-DEVD (Ac-DEVD-AFC) (procaspases-3, -7) or Ac-VEID-AFC (procaspase-6) to a final concentration of 25 μM and analyzed by a kinetic 30 minute assay (excitation 365 nm and emission 495 nm). The final concentration of DMSO in each well is 3% and has no effect on enzyme stability or activity. […] All components of the assay including protein, substrate and inhibitor are stored as frozen aliquots and thawed immediately prior to the assay.
Tables 1 and 2. Procaspase activation as a result of incubation with compound for 5 h at 37° C. (+++ EC50˜0.5-10 μM; ++ EC50˜10-50 μM; + EC50˜50-200 μM; -no activation observed; ND not determined).

Regarding `COc1cccc2cc(C(=O)Nc3cccc(-c4ccn[nH]4)c3)c(=O)oc12` [compound 156, 8-Methoxy-2-oxo-2H-chromene-3-carboxylic acid [3-(2H-pyrazol-3-yl)-phenyl]-amide], the EC50 on procaspase-3, at procaspase-6 and at procaspase-7 was greater than 100 µM in each case.
`CC(=O)Nc1ccccc1-c1cccc(NC(=O)c2cc3cccc(OC(F)(F)F)c3oc2=O)c1` [compound 97, 8-Trifluoromethoxy-2-oxo-2H-chromene-3-carboxylic acid (2′-acetylamino-biphenyl-3-yl)-amide]: the EC50 at procaspase-3, at procaspase-6 and at procaspase-7 was greater than 100 µM throughout.
Turning to `COc1ccc(-c2cccc(NC(=O)c3cc4cccc(O)c4oc3=O)c2)cc1C` [compound 47, 8-Hydroxy-2-oxo-2H-chromene-3-carboxylic acid (4′-Methoxy-3′-methyl-biphenyl-3-yl)-amide], the EC50 on procaspase-3, on procaspase-6 and at procaspase-7 was greater than 100 µM each time.
For the molecule `CCOc1ccc(-c2cccc(NC(=O)c3cc4cccc(OC(F)(F)F)c4oc3=O)c2)cc1` [compound 70, 8-Trifluoromethoxy-2-oxo-2H-chromene-3-carboxylic acid (4′-ethoxy-biphenyl-3-yl)-amide], the EC50 at procaspase-3, at procaspase-6 and on procaspase-7 was greater than 100 µM each time.
`COc1ccc(-c2cccc(NC(=O)c3cc4cccc(OC)c4oc3=O)c2)cn1` [compound 130, 8-Methoxy-2-oxo-2H-chromene-3-carboxylic acid [3-(6-methoxy-pyridin-3-yl)-phenyl]-amide]: the EC50 on procaspase-3, on procaspase-6 and at procaspase-7 was greater than 100 µM throughout.
Consider `COc1cccc2cc(C(=O)Nc3cccc(-c4ccc5c(ccn5C)c4)c3)c(=O)oc12` [compound 164, 8-Methoxy-2-oxo-2H-chromene-3-carboxylic acid [3-(1-methyl-1H-indol-5-yl)-phenyl]-amide], for which the EC50 at procaspase-3, on procaspase-6 and at procaspase-7 was greater than 100 µM in each case.
On to `COc1cccc2cc(C(=O)Nc3cccc(-c4ccc5c(c4)OCCO5)c3)c(=O)oc12` [compound 87, 8-Methoxy-2-oxo-2H-chromene-3-carboxylic acid [3-(2,3-dihydro-benzo[1,4]dioxin-6-yl)-phenyl]-amide], for which the EC50 on procaspase-3, at procaspase-6 and at procaspase-7 was greater than 100 µM each time.
With `COc1cccc2cc(C(=O)Nc3cccc(-c4cn[nH]c4)c3)c(=O)oc12` [compound 150, 8-Methoxy-2-oxo-2H-chromene-3-carboxylic acid [3-(1H-pyrazol-4-yl)-phenyl]-amide], the EC50 on procaspase-3, at procaspase-6 and at procaspase-7 was greater than 100 µM throughout.
As to `COc1cncc(-c2cccc(NC(=O)c3cc4cccc(O)c4oc3=O)c2)c1` [compound 131, 8-Hydroxy-2-oxo-2H-chromene-3-carboxylic acid [3-(5-methoxy-pyridin-3-yl)-phenyl]-amide], the EC50 at procaspase-3, at procaspase-6 and at procaspase-7 was greater than 100 µM throughout.
`O=C(Nc1cccc(-c2ccc3nonc3c2)c1)c1cc2cccc(O)c2oc1=O` [compound 159, 8-Hydroxy-2-oxo-2H-chromene-3-carboxylic acid (3-benzo[1,2,5]oxadiazol-5-yl-phenyl)-amide]: the EC50 at procaspase-3, at procaspase-6 and at procaspase-7 was greater than 100 µM throughout.
Take `COc1ccc(-c2cccc(NC(=O)c3cc4cccc(OC)c4oc3=O)c2)cc1OC` [compound 54, 8-Methoxy-2-oxo-2H-chromene-3-carboxylic acid (3′,4′-Dimethoxy-biphenyl-3-yl)-amide]: the EC50 on procaspase-3, at procaspase-6 and at procaspase-7 was greater than 100 µM each time.
On to `COc1cccc2cc(C(=O)Nc3cccc(-c4ccc5occc(=O)c5c4)c3)c(=O)oc12` [compound 162, 8-Methoxy-2-oxo-2H-chromene-3-carboxylic acid [3-(4-oxo-4H-chromen-6-yl)-phenyl]-amide], for which the EC50 is greater than 100 µM at procaspase-3, 0.5 to 10 µM at procaspase-6 and greater than 100 µM at procaspase-7.
Consider `Cn1ccc2cc(-c3cccc(NC(=O)c4cc5cccc(O)c5oc4=O)c3)ccc21` [compound 163, 8-Hydroxy-2-oxo-2H-chromene-3-carboxylic acid [3-(1-methyl-1H-indol-5-yl)-phenyl]-amide], for which the EC50 on procaspase-3, on procaspase-6 and at procaspase-7 was greater than 100 µM throughout.
In the case of `COc1cccc2cc(C(=O)Nc3cccc(-c4ccc5c(c4)OCO5)c3)c(=O)oc12` [compound 63, 8-Methoxy-2-oxo-2H-chromene-3-carboxylic acid (3-Benzo[1,3]dioxol-5-yl-phenyl)-amide], the EC50 on procaspase-3, on procaspase-6 and on procaspase-7 was greater than 100 µM each time.
In the case of `O=C(Nc1cccc(-c2ccc3occc(=O)c3c2)c1)c1cc2cccc(O)c2oc1=O` [compound 161, 8-Hydroxy-2-oxo-2H-chromene-3-carboxylic acid [3-(4-oxo-4H-chromen-6-yl)-phenyl]-amide], the figures for the EC50 on procaspase-3, on procaspase-6 and on procaspase-7 were 0.5 to 10 µM, greater than 100 µM and greater than 100 µM, respectively.
Take `CC(C)(C)OC(=O)n1cccc1-c1cccc(NC(=O)c2cc3cccc(O)c3oc2=O)c1` [compound 173, 2-{3-[(8-Hydroxy-2-oxo-2H-chromene-3-carbonyl)-amino]-phenyl}-pyrrole-1-carboxylic acid tert-butyl ester]: the EC50 on procaspase-3, on procaspase-6 and at procaspase-7 was greater than 100 µM each time.
With `CCOc1ccc(-c2cccc(NC(=O)c3cc4cccc(OC)c4oc3=O)c2)cc1C` [compound 66, 8-Methoxy-2-oxo-2H-chromene-3-carboxylic acid (4′-ethoxy-3′-methyl-biphenyl-3-yl)-amide], the EC50 at procaspase-3, at procaspase-6 and at procaspase-7 was greater than 100 µM each time.
With `COc1cccc2cc(C(=O)Nc3cccc(-c4cnn(C)c4)c3)c(=O)oc12` [compound 172, 8-Methoxy-2-oxo-2H-chromene-3-carboxylic acid [3-(1-methyl-1H-pyrazol-4-yl)-phenyl]-amide], the EC50 on procaspase-3, on procaspase-6 and on procaspase-7 was greater than 100 µM in each case.
`CC(C)(C)OC(=O)n1c(-c2cccc(NC(=O)c3cc4cccc(O)c4oc3=O)c2)cc2ccccc21` [compound 175, 2-{3-[(8-Hydroxy-2-oxo-2H-chromene-3-carbonyl)-amino]-phenyl}-indole-1-carboxylic acid tert-butyl ester]: the EC50 at procaspase-3, at procaspase-6 and on procaspase-7 was greater than 100 µM each time.
As to `COc1ccc(-c2cccc(NC(=O)c3cc4cccc(OC(F)(F)F)c4oc3=O)c2)cc1` [compound 46, 8-Trifluoromethoxy-2-oxo-2H-chromene-3-carboxylic acid (4′-Methoxy-biphenyl-3-yl)-amide], the EC50 on procaspase-3, on procaspase-6 and on procaspase-7 was greater than 100 µM in each case.
